Test results reported in patent US9873680B2 (Gilead Sciences, Inc., priority 2014, dated 2018).
Read-outs that look alike come from different tables or passages of the source.

Assays:
[1] = tested on: HIV-IIIb; assay: Test A: Antiviral Assay in MT4 Cells; format: cell-based, HIV-1; conditions: for inhibition at 0.2 µM: 0.2 μM drug concentration; for inhibition at 2 µM: 2 μM drug concentration, read-out: Response at 2 μM (percent inhibition of virus-induced cell killing)
Protocol: Test A: Antiviral Assay in MT4 Cells
MT-4 cells were next mixed with HIV-IIIb at an m.o.i of 0.003 for 1 hour, after which time 35 μL of virus/cell mixture (2000 cells) was immediately added to each well containing 40 μL of diluted compound. The plates were then incubated at 37° C. for 5 days. After 5 days of incubation, 25 μl of 2× concentrated CellTiter-Glo™ Reagent (catalog #G7571, Promega Biosciences, Inc., Madison, Wis.) was added to each well containing MT-4 cells. Cell lysis was carried out by incubating at room temperature for 10 min and then chemiluminescence was read.

[2] = Test B: Cytotoxicity Assay; format: cell-based; conditions: human, uninfected MT-4 cells, CellTiter-Glo
Protocol: Test B: Cytotoxicity Assay Compound cytotoxicity and the corresponding CC50 values was determined using the same protocol as described in the antiviral assay (Test A) except that uninfected cells were used.

[3] = Human immunodeficiency virus 1, IIIB, MT4, comparison with previously published compounds, read-out: Response at 0.2 μM (percent inhibition of virus-induced cell killing)
[4] = Human immunodeficiency virus 1, IIIB, MT4, comparison with previously published compounds
[5] = Human immunodeficiency virus 1, MT4, 120 h, MT-4 cells infected with HIV-IIIb, 5 days, values normalized to 100%, average over time, read-out: % inhibition at 0.2 μM (percent inhibition of virus-induced cell killing)

Compound | inhibition at 0.2 µM [1, 3] | inhibition at 2 µM [1, 4] | inhibition at 0.2 µM [1, 5] | CC50 at 5 days [2]
NC(=O)c1cc(-c2ccc(C#CC3(O)CCCC3)nc2[C@H](Cc2cc(F)cc(F)c2)NC(=O)Cn2nc(C(F)(F)F)c3c2C(F)(F)[C@@H]2C[C@H]32)ccc1F [Compound 15B, 5-(2-((S)-1-(2-((3bS,4aR)-5,5-difluoro-3-(trifluoromethyl)-3b,4,4a,5-tetrahydro-1H-cyclopropa[3,4]cyclopenta[1,2-c]pyrazol-1-yl)acetamido)-2-(3,5-difluorophenyl)ethyl)-6-((1-hydroxycyclopentyl)ethynyl)pyridin-3-yl)-2-fluorobenzamide] | 68% | 68% | 68% | 3.02 µM
NC(=O)c1cc(-c2ccc(C#CC3(O)CCCCC3)nc2[C@H](Cc2cc(F)cc(F)c2)NC(=O)Cn2nc(C(F)(F)F)c3c2C(F)(F)[C@@H]2C[C@H]32)ccc1F [Compound 16, 5-(2-((S)-1-(2-((3bS,4aR)-5,5-difluoro-3-(trifluoromethyl)-3b,4,4a,5-tetrahydro-1H-cyclopropa[3,4]cyclopenta[1,2-c]pyrazol-1-yl)acetamido)-2-(3,5-difluorophenyl)ethyl)-6-((1-hydroxycyclohexyl)ethynyl)pyridin-3-yl)-2-fluorobenzamide] | 76% | 77% | 76% | 3 µM
CC(O)(C#Cc1ccc(-c2ccc(F)c(C(N)=O)c2)c([C@H](Cc2cc(F)cc(F)c2)NC(=O)Cn2nc(C(F)(F)F)c3c2C(F)(F)[C@@H]2C[C@H]32)n1)c1ccccc1 (stereo partly drawn) [Compound 17, 5-(2-((S)-1-(2-((3bS,4aR)-5,5-difluoro-3-(trifluoromethyl)-3b,4,4a,5-tetrahydro-1H-cyclopropa[3,4]cyclopenta[1,2-c]pyrazol-1-yl)acetamido)-2-(3,5-difluorophenyl)ethyl)-6-(3-hydroxy-3-phenylbut-1-yn-1-yl)pyridin-3-yl)-2-fluorobenzamide] | 66% | 73% | 66% | 3.06 µM
Cc1cc(C#Cc2ncc(-c3ccc(F)c(C(N)=O)c3)c([C@H](Cc3cc(F)cc(F)c3)NC(=O)Cn3nc(C(F)(F)F)c4c3C(F)(F)[C@@H]3C[C@H]43)n2)ccn1 [Compound 18C, 5-(4-((S)-1-(2-((3bS,4aR)-5,5-difluoro-3-(trifluoromethyl)-3b,4,4a,5-tetrahydro-1H-cyclopropa[3,4]cyclopenta[1,2-c]pyrazol-1-yl)acetamido)-2-(3,5-difluorophenyl)ethyl)-2-((2-methylpyridin-4-yl)ethynyl)pyrimidin-5-yl)-2-fluorobenzamide] | 90% | 94% | 90% | 2.31 µM
Cc1cncc(C#Cc2ncc(-c3ccc(F)c(C(N)=O)c3)c([C@H](Cc3cc(F)cc(F)c3)NC(=O)Cn3nc(C(F)(F)F)c4c3C(F)(F)[C@@H]3C[C@H]43)n2)c1 [Compound 19, 5-(4-((S)-1-(2-((3bS,4aR)-5,5-difluoro-3-(trifluoromethyl)-3b,4,4a,5-tetrahydro-1H-cyclopropa[3,4]cyclopenta[1,2-c]pyrazol-1-yl)acetamido)-2-(3,5-difluorophenyl)ethyl)-2-((5-methylpyridin-3-yl)ethynyl)pyrimidin-5-yl)-2-fluorobenzamide] | 83% | 88% | 83% | 4.63 µM
Cn1nc(NS(C)(=O)=O)c2cccc(-c3ccc(C#CC4(O)COC4)nc3[C@H](Cc3cc(F)cc(F)c3)NC(=O)Cn3nc(C(F)(F)F)c4c3C(F)(F)[C@@H]3C[C@H]43)c21 [Compound 20E, 2-((3bS,4aR)-5,5-difluoro-3-(trifluoromethyl)-3b,4,4a,5-tetrahydro-1H-cyclopropa[3,4]cyclopenta[1,2-c]pyrazol-1-yl)-N—((S)-2-(3,5-difluorophenyl)-1-(6-((3-hydroxyoxetan-3-yl)ethynyl)-3-(1-methyl-3-(methylsulfonamido)-1H-indazol-7-yl)pyridin-2-yl)ethyl)acetamide] |  |  | 94% | 27.7 µM
Cc1c(-c2ccc(C#CC3(O)COC3)nc2[C@H](Cc2cc(F)cc(F)c2)NC(=O)Cn2nc(C(F)(F)F)c3c2C(F)(F)[C@@H]2C[C@H]32)ccc2n[nH]c(=O)n12 [Compound 21, 2-((3bS,4aR)-5,5-difluoro-3-(trifluoromethyl)-3b,4,4a,5-tetrahydro-1H-cyclopropa[3,4]cyclopenta[1,2-c]pyrazol-1-yl)-N—((S)-2-(3,5-difluorophenyl)-1-(6-((3-hydroxyoxetan-3-yl)ethynyl)-3-(5-methyl-3-oxo-2,3-dihydro-[1,2,4]triazolo[4,3-a]pyridin-6-yl)pyridin-2-yl)ethyl)acetamide] |  |  | 100% | 11.7 µM
Cn1nc(NS(C)(=O)=O)c2cccc(-c3ccc(C#CC4(O)CNC4)nc3[C@H](Cc3cc(F)cc(F)c3)NC(=O)Cn3nc(C(F)(F)F)c4c3C(F)(F)[C@@H]3C[C@H]43)c21 [Compound 22C, 2-((3bS,4aR)-5,5-difluoro-3-(trifluoromethyl)-3b,4,4a,5-tetrahydro-1H-cyclopropa[3,4]cyclopenta[1,2-c]pyrazol-1-yl)-N—((S)-2-(3,5-difluorophenyl)-1-(6-((3-hydroxyazetidin-3-yl)ethynyl)-3-(1-methyl-3-(methylsulfonamido)-1H-indazol-7-yl)pyridin-2-yl)ethyl)acetamide] |  |  | 93% | 17.7 µM
CN1CC(O)(C#Cc2ccc(-c3cccc4c(NS(C)(=O)=O)nn(C)c34)c([C@H](Cc3cc(F)cc(F)c3)NC(=O)Cn3nc(C(F)(F)F)c4c3C(F)(F)[C@@H]3C[C@H]43)n2)C1 [Compound 23C, 2-((3bS,4aR)-5,5-difluoro-3-(trifluoromethyl)-3b,4,4a,5-tetrahydro-1H-cyclopropa[3,4]cyclopenta[1,2-c]pyrazol-1-yl)-N—((S)-2-(3,5-difluorophenyl)-1-(6-((3-hydroxy-1-methylazetidin-3-yl)ethynyl)-3-(1-methyl-3-(methylsulfonamido)-1H-indazol-7-yl)pyridin-2-yl)ethyl)acetamide] |  |  | 100% | 9.19 µM
Cn1nc(NS(C)(=O)=O)c2cccc(-c3ccc(C#CC4(O)CCC4)nc3[C@H](Cc3cc(F)cc(F)c3)NC(=O)Cn3nc(C(F)(F)F)c4c3C(F)(F)[C@@H]3C[C@H]43)c21 [Compound 24D, 2-((3bS,4aR)-5,5-difluoro-3-(trifluoromethyl)-3b,4,4a,5-tetrahydro-1H-cyclopropa[3,4]cyclopenta[1,2-c]pyrazol-1-yl)-N—((S)-2-(3,5-difluorophenyl)-1-(6-((1-hydroxycyclobutyl)ethynyl)-3-(1-methyl-3-(methylsulfonamido)-1H-indazol-7-yl)pyridin-2-yl)ethyl)acetamide] |  |  | 100% | 15.8 µM
Cn1nc(N)c2cccc(-c3ccc(C#CC4(O)CCC4)nc3[C@H](Cc3cc(F)cc(F)c3)NC(=O)Cn3nc(C(F)(F)F)c4c3C(F)(F)[C@@H]3C[C@H]43)c21 [Compound 25, N—((S)-1-(3-(3-amino-1-methyl-1H-indazol-7-yl)-6-((1-hydroxy-cyclobutyl)ethynyl)pyridin-2-yl)-2-(3,5-difluorophenyl)ethyl)-2-((3bS,4aR)-5,5-difluoro-3-(trifluoromethyl)-3b,4,4a,5-tetrahydro-1H-cyclopropa[3,4]cyclopenta[1,2-c]pyrazol-1-yl)acetamide] |  |  | 91% | 9.92 µM
Cn1nc(NS(C)(=O)=O)c2cccc(-c3ccc(C#CC4(O)CCOCC4)nc3[C@H](Cc3cc(F)cc(F)c3)NC(=O)Cn3nc(C(F)(F)F)c4c3C(F)(F)[C@@H]3C[C@H]43)c21 [Compound 26, 2-((3bS,4aR)-5,5-difluoro-3-(trifluoromethyl)-3b,4,4a,5-tetrahydro-1H-cyclopropa[3,4]cyclopenta[1,2-c]pyrazol-1-yl)-N—((S)-2-(3,5-difluorophenyl)-1-(6-((4-hydroxytetrahydro-2H-pyran-4-yl)ethynyl)-3-(1-methyl-3-(methylsulfonamido)-1H-indazol-7-yl)pyridin-2-yl)ethyl)acetamide] |  |  | 94% | 15.9 µM
Cn1nc(N)c2cccc(-c3ccc(C#CC4(O)CCOCC4)nc3[C@H](Cc3cc(F)cc(F)c3)NC(=O)Cn3nc(C(F)(F)F)c4c3C(F)(F)[C@@H]3C[C@H]43)c21 [Compound 27, N—((S)-1-(3-(3-amino-1-methyl-1H-indazol-7-yl)-6-((4-hydroxytetrahydro-2H-pyran-4-yl)ethynyl)pyridin-2-yl)-2-(3,5-difluorophenyl)ethyl)-2-((3bS,4aR)-5,5-difluoro-3-(trifluoromethyl)-3b,4,4a,5-tetrahydro-1H-cyclopropa[3,4]cyclopenta[1,2-c]pyrazol-1-yl)acetamide] |  |  | 92% | 15.8 µM
Cn1nc(NS(C)(=O)=O)c2cccc(-c3ccc(C#CC4CCOCC4)nc3[C@H](Cc3cc(F)cc(F)c3)NC(=O)Cn3nc(C(F)(F)F)c4c3C(F)(F)[C@@H]3C[C@H]43)c21 [Compound 28B, 2-((3bS,4aR)-5,5-difluoro-3-(trifluoromethyl)-3b,4,4a,5-tetrahydro-1H-cyclopropa[3,4]cyclopenta[1,2-c]pyrazol-1-yl)-N—((S)-2-(3,5-difluorophenyl)-1-(3-(1-methyl-3-(methylsulfonamido)-1H-indazol-7-yl)-6-((tetrahydro-2H-pyran-4-yl)ethynyl)pyridin-2-yl)ethyl)acetamide] |  |  | 92% | 6.07 µM
